We go through five compounds from ChEMBL document CHEMBL1150532, “Syntheses and antifilarial profile of 5-amino and 5,8-diamino-isoquinoline derivatives: A new class of antifilarial agents” (1996).

Format in all cases: functional
Test [1] has as its system Acanthocheilonema viteae. Kind of test: In vitro inhibition of Tubulin content in worms at concentration 1.0 uM.
The subject of test [2] is Acanthocheilonema viteae. Kind of test: In vitro inhibition of glucose uptake by Acanthocheilonema viteae at concentration 1.0 uM.
In test [3] the test system is Acanthocheilonema viteae. In words: In vitro increase in lactate production at concentration 1.0 uM.
Test [4] relates to Acanthocheilonema viteae. In words: Antifilarial activity was measured by percent sterilization of A. viteae at dose 50 mg/kg *5days (i.p.); 0 represents inactive. The note with it: route intraperitoneal.
For test [5], the system named is Acanthocheilonema viteae. In words: In vitro inhibition of ATP content in worms at concentration 1.0 uM.
The test system of test [6] is Mastomys natalensis. In words: Compound was evaluated in vivo for microfilaricidal activity against Acanthocheilonema viteae infection in Mastomys natalensis; 0 represents inactive.
In test [7] the test system is Mastomys natalensis. Kind of test: Compound was evaluated in vivo for microfilaricidal activity against Acanthocheilonema viteae infection in Mastomys natalensis at dose 50 mg/kg *5days (i.p.). The conditions noted are these: route intraperitoneal.
Test [8] concerns Acanthocheilonema viteae. Kind of test: Antifilarial activity was measured by percent sterilization of A. viteae at dose 50 mg/kg *5days (i.p.). The note with it: route intraperitoneal.
Test [9] concerns Mastomys natalensis. In words: Compound was evaluated in vivo for microfilaricidal activity against Acanthocheilonema viteae infection in Mastomys natalensis at dose 50 mg/kg/5days (i.p.); 0 represents inactive. The note with it: route intraperitoneal.
Test [10] concerns Mastomys natalensis. In words: Compound was evaluated in vivo for microfilaricidal activity against Acanthocheilonema viteae infection in Mastomys natalensis at dose 50 mg/kg/5days (i.p.). The note with it: route intraperitoneal.
Test [11] deals with Mastomys natalensis. In words: Compound was evaluated in vivo for microfilaricidal activity against Acanthocheilonema viteae infection in Mastomys natalensis.
For test [12], the system named is Acanthocheilonema viteae. Kind of test: Antifilarial activity was measured by percent sterilization of A. viteae at dose 50 mg/kg/5days (i.p.); 0 represents inactive. The conditions noted are these: route intraperitoneal.
The test system of test [13] is Mastomys natalensis. In words: Compound was evaluated in vivo for microfilaricidal activity against Acanthocheilonema viteae infection in Mastomys natalensis at dose 350 mg/kg/5 days (i.p.). The conditions noted are these: route intraperitoneal.

In the test on Acanthocheilonema viteae [1], `O=[N+]([O-])c1ccc(N2CCOCC2)c2ccncc12` had a Tubulin content of 38.5 pmol/mg. In the test with Acanthocheilonema viteae [2], this compound had a Glucose uptake of 6.15 µM/mg. Moreover, the Lactate production with Acanthocheilonema viteae [3] worked out at 7.19 µM/mg. The compound further gave a Sterility with Acanthocheilonema viteae [4] of 0%. Further, in the test on Acanthocheilonema viteae [5], the ATP content turned out to be 39.1 pmol/mg. Besides, the Activity with Mastomys natalensis [6] amounted to 0; in the test with Mastomys natalensis [7], 81.

For the compound `OC1CC1Nc1cccc2cnccc12` (stereo unspecified), the Tubulin content in the test with Acanthocheilonema viteae [1] amounted to 70.2 pmol/mg. The Glucose uptake in the test on Acanthocheilonema viteae [2] stood at 6.67 µM/mg. The compound further gave a Lactate production in the test with Acanthocheilonema viteae [3] of 7.42 µM/mg. Moreover, the Sterility in the test with Acanthocheilonema viteae [8] worked out at 31%. In the test on Acanthocheilonema viteae [5], this compound came in with an ATP content of 108 pmol/mg. The Activity in the test on Mastomys natalensis [9] and in the test on Mastomys natalensis [6] was 0 throughout.

In turn, `O=C1CN(c2cccc3cnccc23)C2CC2O1` (stereo unspecified) returned a Tubulin content in the test with Acanthocheilonema viteae [1] of 35.4 pmol/mg. This compound also registered a Glucose uptake in the test with Acanthocheilonema viteae [2] of 6.09 µM/mg. In the test with Acanthocheilonema viteae [3], this compound had a Lactate production of 6.42 µM/mg. In addition, the Sterility in the test on Acanthocheilonema viteae [4] came out at 0%. Moreover, in the test on Acanthocheilonema viteae [5], the ATP content was 74.2 pmol/mg. Moreover, the Activity is on record as 34 in the test with Mastomys natalensis [10] and 0 with Mastomys natalensis [11].

`Clc1ccc2c(Nc3ccc(N4CCOCC4)c4ccncc34)ccnc2c1` returned a Sterility in the test on Acanthocheilonema viteae [12] of 0%. The compound also registered a Tubulin content in the test with Acanthocheilonema viteae [1] of 45.1 pmol/mg. Further, the Glucose uptake in the test on Acanthocheilonema viteae [2] is 6.26 µM/mg. The same compound returned a Lactate production in the test on Acanthocheilonema viteae [3] of 7.3 µM/mg. For the same compound, the ATP content with Acanthocheilonema viteae [5] came out at 37.9 pmol/mg. The results for the Activity in the test on Mastomys natalensis [10] and with Mastomys natalensis [11] were 76 and 60, respectively.

Consider `CCN(CC)C(=O)N1CCN(C)CC1.O=C(O)CC(O)(CC(=O)O)C(=O)O` [DIETHYLCARBAMAZINE CITRATE], for which the Sterility with Acanthocheilonema viteae [12] came out at 0%. Further, the Activity in the test with Mastomys natalensis [9] was 0; with Mastomys natalensis [13], 90.
